{"source": "paper PMC3259734", "about": "(ACS medicinal chemistry letters, 2011)", "key": {"[1]": {"system": "M. tuberculosis H37Rv", "experiment": "DHNA rescue of growth of treated M. tuberculosis", "type": "cell-based, Mycobacterium tuberculosis", "conditions": "DHNA 100 μg/ml added to the media; compound at 2xMIC"}, "[2]": {"experiment": "Cytotoxicity assays", "type": "cell-based"}, "[3]": {"biological_target": "T1, MenB (Mycobacterium tuberculosis, UniProt P9WNP5)", "T1 sequence (P9WNP5 whole entry)": "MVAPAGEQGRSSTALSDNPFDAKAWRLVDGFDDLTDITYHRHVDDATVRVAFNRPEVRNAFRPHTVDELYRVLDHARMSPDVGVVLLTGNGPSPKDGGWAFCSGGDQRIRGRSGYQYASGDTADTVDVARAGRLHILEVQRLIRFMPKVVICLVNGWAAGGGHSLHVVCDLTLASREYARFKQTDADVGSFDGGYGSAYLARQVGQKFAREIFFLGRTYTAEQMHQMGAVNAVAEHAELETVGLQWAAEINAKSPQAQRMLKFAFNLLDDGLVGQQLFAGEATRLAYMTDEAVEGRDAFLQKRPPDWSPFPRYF", "experiment": "biochemical", "conditions": "for ability to inhibit MenB: analogues still able to undergo elimination"}, "[4]": {"system": "M. tuberculosis H37Rv", "experiment": "Antibacterial activity", "type": "cell-based, Mycobacterium tuberculosis", "conditions": "in words"}, "[5]": {"biological_target": "T1, MenB", "experiment": "Steady state kinetics of MenB inhibition", "type": "biochemical", "conditions": "steady state kinetic methods"}, "[6]": {"system": "MenE", "experiment": "Direct MenE inhibition assay", "type": "biochemical", "conditions": "MenE 100 nM; data not shown"}, "[7]": {"system": "nonreplicating M. tuberculosis (NRP-MTB)", "conditions": "against NRP-MTB; cited from earlier work"}}, "note": "Several values for one entry are separate records, joined by “and”; a condition that tells them apart may be missing. Equal values may be shown once.", "data": [{"smiles": "COC(=O)/C=C/C(=O)c1ccc(F)cc1", "note": "[Compound 2b]", "values": [{"measurement": "rescue of growth by DHNA", "setting": "[1]", "value": "rescue the growth"}, {"measurement": "selectivity ratio", "setting": "[2]", "value": "> 20"}]}, {"smiles": "O=C(O)/C=C/C(=O)c1ccc(Cl)cc1", "note": "[Compound 3a]", "values": [{"measurement": "change of IC50 for MenB inhibition with CoA concentration", "setting": "[3]; data not shown", "value": "decreased as the concentration of CoA increased"}, {"measurement": "antibacterial activity", "setting": "[4]", "value": "limited antibacterial activity"}]}, {"smiles": "COC(=O)/C=C/C(=O)c1ccc(Cl)cc1", "note": "[Compound 3b, 4-Oxo-4-chlorophenylbutenoyl methyl ester]", "values": [{"measurement": "rescue of growth by DHNA", "setting": "[1]", "value": "rescue the growth"}, {"measurement": "selectivity ratio", "setting": "[2]", "value": "> 20"}]}, {"smiles": "CC(C(=O)c1ccc(Cl)cc1)C(N[C@@H](C)c1ccccc1)C(=O)O", "note": "(stereo partly drawn) [Compound 7S]", "values": [{"measurement": "ability to inhibit MenB", "setting": "[3]", "value": "retained the ability to inhibit MenB"}]}, {"smiles": "CC(C)(COP(=O)(O)OP(=O)(O)OC[C@H]1O[C@@H](n2cnc3c(N)ncnc32)[C@H](O)[C@@H]1OP(=O)(O)O)[C@@H](O)C(=O)NCCC(=O)NCCSC(CC(=O)c1ccc(Cl)cc1)C(=O)O", "note": "(stereo partly drawn) [Compound 7]", "values": [{"measurement": "mode of MenB inhibition", "setting": "[5]", "value": "noncompetitive (mixed)"}]}, {"smiles": "[2H]C([2H])(C(=O)c1ccccc1Cl)C(N[C@@H](C)c1ccccc1)C(=O)O", "note": "(stereo partly drawn) [Compound 8S]", "values": [{"measurement": "ability to inhibit MenB", "setting": "[3]", "value": "retained the ability to inhibit MenB"}]}, {"smiles": "CC(C)(COP(=O)(O)OP(=O)(O)OC[C@H]1O[C@@H](n2cnc3c(N)ncnc32)[C@H](O)[C@@H]1OP(=O)(O)O)[C@@H](O)C(=O)NCCC(=O)NCCSC(CC(=O)c1ccccc1Cl)C(=O)O", "note": "(stereo partly drawn) [Compound 10]", "values": [{"measurement": "mode of MenB inhibition", "setting": "[5]", "value": "noncompetitive (mixed)"}]}, {"smiles": "CC(C)(COP(=O)(O)OP(=O)(O)OC[C@H]1O[C@@H](n2cnc3c(N)ncnc32)[C@H](O)[C@@H]1OP(=O)(O)O)[C@@H](O)C(=O)NCCC(=O)NCCSC(CC(=O)c1ccc(Cl)cc1Cl)C(=O)O", "note": "(stereo partly drawn) [Compound 16]", "values": [{"measurement": "IC50", "setting": "[3]; IC50, 2-CoA-4-oxo-4-phenylbutanoic acids and analogues, Table 2", "value": "~100 nM and 100 nM"}, {"measurement": "mode of MenB inhibition", "setting": "[5]", "value": "noncompetitive (mixed)"}]}, {"smiles": "CC(C)(COP(=O)(O)OP(=O)(O)OC[C@H]1O[C@@H](n2cnc3c(N)ncnc32)[C@H](O)[C@@H]1OP(=O)(O)O)[C@@H](O)C(=O)NCCC(=O)NCCSCCC(=O)c1ccc(Cl)cc1Cl", "note": "[Compound 18]", "values": [{"measurement": "concentration up to which MenB was not (significantly) inhibited", "setting": "[3]", "value": "> 400", "unit": "µM"}]}, {"smiles": "CC(NC(CC(=O)c1ccc(F)cc1)C(=O)O)c1ccccc1", "note": "(stereo not drawn) [Compound 1548L21]", "values": [{"measurement": "concentration up to which MenE was not inhibited", "setting": "[6]", "value": "> 300", "unit": "µM"}]}, {"smiles": "CO[C@H]1/C=C/O[C@@]2(C)Oc3c(C)c(O)c4c(O)c(c(/C=N/N5CCN(C)CC5)c(O)c4c3C2=O)NC(=O)/C(C)=C\\C=C\\[C@H](C)[C@H](O)[C@@H](C)[C@@H](O)[C@@H](C)[C@H](OC(C)=O)[C@@H]1C", "note": "[rifampicin]", "values": [{"measurement": "MIC", "setting": "[7]", "value": 0.4, "unit": "µg/mL"}]}]}
